Measurements: PMC8466420, “Inflammatory and Cytotoxic Activities of Abietane Terpenoids from Nepeta bracteata Benth” (Molecules, 2021)

Assays:
Type in all cases: cell-based
HCT-8 cells = assay: Cytotoxicity test against HCT-8 cells (MTT); details: 24 h, means ± SD (n = 3), read-out: IC50 (μM) HCT-8 (cytotoxic activity)
Method: (§1) The cytotoxic activities of compounds 1–10 against HCT-8 cells were tested using the MTT colorimetric method. HCT-8 cells were cultivated on DMEM medium at 37 °C and 5% CO2. After diluting the DMEM medium, cells were seeded into 96-well sterile microplates (6 × 10^4 cells/well) and cultured with a series of various concentrations of tested compounds or adriamycin (positive control) for 24 h at 37 °C. After incubation, all compounds were tested at five concentrations (10−100 μM) for 1 h. Following this, the supernatant was removed, and all components were dissolved in 100% DMSO, at such an amount that there was a final DMSO concentration of 0.1% added to each well. The absorbance was measured using a microplate reader at a wavelength of 570 nm. […] The cell growth assay was repeated three times, and the IC50 values were calculated using Microsoft Excel software.

[1] = system: nitric oxide (NO) production in lipopolysaccharide (LPS)-stimulated RAW 264.7 cells; assay: Anti-inflammation assay: inhibition of NO production in LPS-stimulated RAW 264.7 macrophages; details: means ± SD of triplicate experiments
Method: The anti-inflammatory activity of the isolated compounds was evaluated in lipopolysaccharide-stimulated RAW 264.7 macrophages using the […]. The RAW 264.7 macrophages were seeded in 96-well plates at a density of 1 × 10^4 cells per well for 24 h, followed by treatment with different extracts of identical purity for another 24 h. The compounds were dissolved in dimethyl sulfoxide (DMSO) and diluted appropriately just before cell treatments. Cells were incubated with the extract at indicated concentrations, with DMSO not exceeding 0.1% in all experiments. The cells were cultured in DMEM with 10% FBS and antibiotics (100 U/mL penicillin and 100 µg/mL streptomycin) at 37 °C with 5% CO2. […].

RAW 264.7 macrophages = assay: RAW 264.7 macrophage viability test (MTT); details: compounds at 50 μM; for viability at 50 µM: Mus musculus, RAW264.7, 24 h, read-out: Cell Survival Rate (%) RAW 264.7 Macrophages
Method: The MTT colorimetric method was used to detect the effect of compounds 1–10 on the viability of RAW 264.7 macrophages. The RAW 264. 7 macrophages in the logarithmic growth phase were digested with trypsin to prepare a single-cell suspension, which was seeded in a 96-well plate at a density of 1 × 10^4 cells per well and cultured in a 5% CO2 incubator for 24 h at 37 °C, before discarding the supernatant. The blank control group was cultured with 10% FBS-containing DMEM, and the drug group was treated with aqueous solutions of compounds 1–10, with six replicate wells for each concentration. Incubation was continued in 5% CO2 at 37 °C. After 24 h of incubation, 10 μL of 5 mg/mL MTT was added to each well. The culture solution was removed after culturing for 4 h. Then, 100 μL of DMSO was added to each well, before shaking for 10 min to achieve complete dissolution. The optical density (OD) was measured at 492 nm using a microplate reader to calculate cell viability.

[2] = Cytotoxicity test against HCT-8 cells (MTT); details: human, means ± SD (n = 3), read-out: IC50 (μM) HCT-8 (cytotoxic activity)
Method: as §1

[3] = Mus musculus, RAW264.7, 24 h treatment

Compound	IC50 [1, 3] [µM]	IC50 (HCT-8 cells) [µM]	IC50 ([1]; 24 h treatment) [µM]	Cell Survival Rate (%) RAW 264.7 Macrophages (RAW 264.7 macrophages; 24 h) [%]	IC50 at 24 h [2] [µM]	viability at 50 µM (RAW 264.7 macrophages) [%]
1-phenanthrenecarboxylic acid [Compound 8]		> 50	37.5 ± 0.92	99.12 ± 0.28		
COc1cccc2c1C(=O)c1c(O)c3c(c(O)c1C2=O)C[C@@](O)(C(=O)CO)C[C@@H]3O[C@H]1C[C@H](N)[C@H](O)[C@H](C)O1 [Adriamycin, reference compound]					1.78 ± 0.14	
CC(C)c1ccc2c(c1)[C@@H](O)C[C@H]1[C@@](C)(C=O)CCC[C@]21C [Compound 2, nepetabrate B]	19.2 ± 1.25				36.3 ± 1.1	88.26 ± 0.32
CC1=C(CO)[C@@H]2C[C@H](O)c3cc(C(C)C)ccc3[C@@]2(C)CC1 [Compound 3, nepetabrate C]	22.3 ± 1.26				> 50	99.84 ± 0.21
CC1CC(=O)OCCNC1=O (centres unmarked) [Compound 5, 6-methyl-1,4-oxazocane-5,8-dione]	18 ± 1.13				> 50	99.21 ± 0.15

Second part, led by results:

IC50 [1, 3] [µM]	Compound	IC50 (HCT-8 cells) [µM]	IC50 ([1]; 24 h treatment) [µM]	Cell Survival Rate (%) RAW 264.7 Macrophages (RAW 264.7 macrophages; 24 h) [%]	IC50 at 24 h [2] [µM]	viability at 50 µM (RAW 264.7 macrophages) [%]
15.9 ± 0.38	CC(=O)Oc1ccccc1C(=O)O [Aspirin, reference compound]					
38.2 ± 1.15	CC(=O)O[C@H]1CCC(C)(C)[C@@H]2CCc3cc(C(C)C)ccc3[C@@]12CO [Compound 1, nepetabrate A]				> 50	97.93 ± 0.26
18.8 ± 0.75	C=C1[C@@H]2C[C@H](O)c3cc(C(C)C)ccc3[C@@]2(C)CC[C@@]1(C)O [Compound 4, nepetabrate D]				41.4 ± 0.91	92.21 ± 0.19
36.2 ± 1.21	CC(C)(O)c1ccc2c(c1)CC[C@H]1[C@@](C)(C(=O)O)CCC[C@]21C [Compound 6, angustanoic acid F]				> 50	99.89 ± 0.13
37.1 ± 0.81	CC(C)c1ccc2c(c1)[C@@H](O)C[C@H]1[C@@](C)(C(=O)O)CCC[C@]21C [Compound 7, 7a-hydroxycallitrisic acid]				> 50	98.75 ± 0.45
42.3 ± 0.56	CC(=O)c1ccc2c(c1)CC[C@H]1[C@@](C)(C(=O)O)CCC[C@]21C [Compound 9, angustanoic acid G]				> 50	98.26 ± 0.18
46.3 ± 1.02	CC(C)c1ccc2c(c1)CC[C@@H]1[C@](C)(CCC[C@]1(C)C(=O)O)O2 [Compound 10, jiadifenoic acid K]				> 50	98.75 ± 0.2
